Results reported in ChEMBL document CHEMBL4190290, “Synthesis and antiangiogenic activity study of new hop chalcone Xanthohumol analogues” (Eur J Med Chem, 2017).
Calls of active or inactive are those of the source. The calls are words filed in the database; no cut-off is given here.

Experiments:
HUVEC [1] = assay: Antiangiogenic activity in fibronectin pretreated HUVEC assessed as reduction in cell adhesion at 10 uM after 90 mins by DAPI staining based microscopic method; format: functional; details: Homo sapiens
HUVEC [2] = assay: Antimigratory activity in HUVEC at 10 uM after 6 hrs by DAPI staining based Boyden chamber method; format: functional, cell-based; details: Homo sapiens
HUVEC [3] = assay: Antiangiogenic activity in HUVEC assessed as inhibition of cell morphogenesis by measuring reduction in capillary like structure formation at 10 uM after 6 hrs by inverted microscopic method; format: functional, cell-based; details: Homo sapiens
HUVEC [4] = assay: Anti-invasive activity in HUVEC at 10 uM after 24 hrs by DAPI staining based Boyden chamber method; format: functional, cell-based; details: Homo sapiens
HUVEC [5] = assay: Cytotoxicity against HUVEC assessed as reduction in cell viability at 20 uM up to 96 hrs by MTT assay; format: cell-based; details: human
HUVEC [6] = assay: Cytotoxicity against HUVEC assessed as reduction in cell viability at 10 uM after 96 hrs by MTT assay; format: cell-based; details: human
HUVEC [7] = assay: Cytotoxicity against HUVEC assessed as reduction in cell viability up to 20 uM up to 96 hrs by MTT assay; format: cell-based; details: human
HUVEC [8] = assay: Cytotoxicity against HUVEC assessed as induction of apoptosis at 10 uM after 24 hrs by Annexin V/7-AAD staining based flow cytometry; format: cell-based; details: human

Row | SMILES | Activity (HUVEC [1]) | Activity (HUVEC [2]) | Antiangiogenic activity (active/not active) (HUVEC [3]) | Activity (HUVEC [4]) | Activity (HUVEC [5]) | Activity (HUVEC [6]) | Activity (HUVEC [7]) | Activity (HUVEC [8])
1 | COc1ccc(/C=C/C(=O)c2c(OC)cc(O)c(CC=C(C)C)c2O)c(F)c1 | Active | Active | Active | inactive | Toxic | – | – | –
2 | COCOc1cc(OC)c(C(=O)/C=C/c2ccc(OC)c(F)c2)c(O)c1CC=C(C)C | Active | Active | Active | inactive | – | – | – | –
3 | COc1cc(O)c(CC=C(C)C)c(O)c1C(=O)/C=C/c1ccccc1F | Active | – | Active | – | – | – | – | –
4 | COCOc1cc(OC)c(C(=O)/C=C/c2ccc(OC)c(F)c2)c(OCOC)c1CC=C(C)C | Active | Active | Active | inactive | – | Toxic | – | –
5 | COc1ccc(/C=C/C(=O)c2c(OC)cc(O)c(CC=C(C)C)c2O)cc1F | Active | Active | Active | inactive | – | – | – | –
6 | COCOc1cc(OC)c(C(=O)/C=C/c2ccc(OC)cc2F)c(O)c1CC=C(C)C | Active | – | Active | inactive | – | – | Non-Toxic | –
7 | COCOc1cc(OC)c(C(=O)/C=C/c2ccccc2F)c(O)c1CC=C(C)C | Active | – | Active | – | – | – | – | –
8 | COc1cc(O)c(CC=C(C)C)c(O)c1C(=O)/C=C/c1ccc(O)cc1 [XANTHOHUMOL] | Active | Active | Active | Active | Toxic | – | – | –
9 | COCOc1cc(OC)c(C(=O)/C=C/c2ccc([N+](=O)[O-])cc2)c(O)c1CC=C(C)C | Active | Active | Active | inactive | Toxic | – | – | Toxic
10 | COCOc1cc(OC)c(C(=O)/C=C/c2ccc(F)cc2)c(O)c1CC=C(C)C | – | Active | – | inactive | – | – | – | –
11 | COCOc1cc(OC)c(C(=O)/C=C/c2ccc(OC)cc2F)c(OCOC)c1CC=C(C)C | Active | Active | Active | inactive | – | Toxic | – | –
12 | COc1cc(O)c(CC=C(C)C)c(O)c1C(=O)/C=C/c1ccc(F)cc1 | Active | Active | Active | inactive | – | – | – | –
